According to ChEMBL document CHEMBL1128524, “The histamine H1-receptor antagonist binding site. A stereoselective pharmacophoric model based upon (semi-)rigid H1-antagonists and including a known interaction site on the receptor” (J Med Chem, 1995):

Legend:
Histamine H1 receptor [1] = molecular target: T1, Histamine H1 receptor (Cavia porcellus, UniProt P31389); experiment: (§1) Potency against histamine H1 receptor on guinea pig ileum; type: tissue-based; conditions: read-out: pA2 (converted)
Histamine H1 receptor [2] = molecular target: T1, Histamine H1 receptor; experiment: Inhibition of [3H]mepyramine binding with histamine H1 receptor in guinea pig cerebellum membranes after 30 min; type: cell membranes, Membrane
Histamine H1 receptor [3] = molecular target: T1, Histamine H1 receptor; experiment: Inhibition of [3H]mepyramine binding with histamine H1 receptor in guinea pig cerebellum membranes; type: cell membranes, Membrane
[4] = molecular target: Histamine H1 receptor (Cavia porcellus) (UniProt P31389); experiment: as §1; type: tissue-based
Histamine H1 receptor [5] = molecular target: T1, Histamine H1 receptor; experiment: as §1

T1 sequence (P31389 whole entry): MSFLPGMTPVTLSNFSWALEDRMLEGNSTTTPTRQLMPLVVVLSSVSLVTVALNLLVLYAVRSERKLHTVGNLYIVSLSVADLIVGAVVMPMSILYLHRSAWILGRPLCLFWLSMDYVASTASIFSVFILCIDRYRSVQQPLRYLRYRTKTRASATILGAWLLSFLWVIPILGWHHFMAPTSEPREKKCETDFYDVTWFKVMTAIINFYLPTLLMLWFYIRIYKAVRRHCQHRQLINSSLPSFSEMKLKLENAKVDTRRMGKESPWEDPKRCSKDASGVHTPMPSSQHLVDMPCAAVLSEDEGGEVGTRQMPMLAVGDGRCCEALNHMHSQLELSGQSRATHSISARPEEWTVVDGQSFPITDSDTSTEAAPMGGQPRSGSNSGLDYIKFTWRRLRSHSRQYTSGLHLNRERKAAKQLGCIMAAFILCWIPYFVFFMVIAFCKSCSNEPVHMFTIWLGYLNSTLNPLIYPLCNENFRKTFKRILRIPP
Sequence of Histamine H1 receptor (Cavia porcellus) (P31389 whole entry): as above

SMILES	Kb (Histamine H1 receptor [1])	Ki (Histamine H1 receptor [2])	other results
Cc1ccc([C@H](OCCN(C)C)c2ccccc2)cc1	2 nM	12.3 nM	–
Cc1ccc([C@@H](OCCN(C)C)c2ccccc2)cc1	158 nM	–	Ki (Histamine H1 receptor [3]): 12.3 nM
c1ccc2c(c1)Sc1ccccc1N2C1CN2CCC1CC2 (configuration not stated)	–	–	pED50 [4]: 7.3
c1ccc2c(c1)Sc1ccccc1N2CC1CN2CCC1CC2 (configuration not stated)	–	–	pED50 [4]: 7.2
NC1=NCC2c3ccccc3Cc3ccccc3N12 (configuration not stated) [EPINASTINE]	–	1.41 nM	IC50 (Histamine H1 receptor [5]): 1.58 nM
CN1CCC2=C(C1)C(c1ccccc1)c1ccccc12 (configuration not stated) [PHENINDAMINE]	1.58 nM	6.31 nM	–
Cc1ccc(/C(=C\CN2CCCC2)c2ccccn2)cc1 [TRIPROLIDINE]	0.126 nM	1.66 nM	–
